Results: PubChem BioAssay (NCI)
Values joined by “and” are separate entries in the source; they are usually repeats but may differ in a detail not shown here. Equal entries are not always repeated.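 Cultured in 96-well plates, cells were exposed to test compound for 48 hours across five concentrations. GI50 marks 50% less growth. TGI is the concentration that stops growth completely.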

What was measured:
Experiment in all cases: NCI anticancer screen, dose series, 48 h
DLD-1 colon = test system: DLD-1 colon
SK-MEL-5 melanoma = test system: SK-MEL-5 melanoma
KM20L2 colon = test system: KM20L2 colon
SF-295 CNS = test system: SF-295 CNS
SR leukemia = test system: SR leukemia
OVCAR-4 ovarian = test system: OVCAR-4 ovarian
IGROV1 ovarian = test system: IGROV1 ovarian
ACHN renal = test system: ACHN renal
HOP-92 NSCLC = test system: HOP-92 NSCLC
BT-549 breast = test system: BT-549 breast

SMILES | TGI (DLD-1 colon) | TGI (SK-MEL-5 melanoma) [µM] | TGI (KM20L2 colon) | TGI (SF-295 CNS) | TGI (SR leukemia) [µM] | TGI (OVCAR-4 ovarian) | TGI (IGROV1 ovarian) | TGI (ACHN renal) | TGI (HOP-92 NSCLC) | GI50 (SK-MEL-5 melanoma) | GI50 (KM20L2 colon) [µM] | GI50 (SF-295 CNS) [µM] | GI50 (OVCAR-4 ovarian) [µM] | GI50 (IGROV1 ovarian) | GI50 (ACHN renal) [µM] | GI50 (HOP-92 NSCLC) | GI50 (BT-549 breast) [µM] | TGI (BT-549 breast) [µM] | GI50 (SR leukemia) [µM] | GI50 (DLD-1 colon) [µM]
CC1(C)CCC(Sc2ccccc2)O1 (stereo not given) | > 100 µM | > 100 | > 100 µM | > 100 µM | > 100 | > 100 µM | > 100 µM | > 100 µM | > 100 µM | – | – | – | – | – | – | – | – | – | – | –
Cc1ccc(NC(=O)CCCC(=O)CC(=O)c2ccc(Br)cc2)cc1 | > 100 µM | > 100 | > 100 µM | > 100 µM | > 100 | > 100 µM | > 100 µM | > 100 µM | > 100 µM | – | – | – | – | – | – | – | – | – | – | –
COC(=O)CCSC(=O)Nc1ccc(N=Nc2ccccc2)cc1 | > 100 µM | > 100 | 76.3 µM | > 100 µM | > 100 | > 100 µM | > 100 µM | > 100 µM | > 100 µM | – | – | – | – | – | – | – | – | – | – | –
Cc1ccc(C(=O)CC2(O)C(=O)Nc3c(C)cc(Cl)cc32)cc1 (stereo not given) | > 100 µM | > 100 | > 100 µM | > 100 µM | – | > 100 µM | – | > 100 µM | > 100 µM | – | – | – | – | – | – | – | – | – | – | –
Cn1c(CBr)nc2c1C(=O)c1nc(CBr)[nH]c(=O)c1C2=O | > 100 µM | > 100 | > 100 µM | > 100 µM | – | – | > 100 µM | > 100 µM | > 100 µM | – | – | – | – | – | – | – | – | – | – | –
COc1cc[c]([Sn]([c]2ccc(OC)cc2)([c]2ccc(OC)cc2)[c]2ccc(OC)cc2)cc1 | – | 28.5 | 47 µM | > 100 µM | – | 62.8 µM | > 100 µM | 96.7 µM | 22.8 µM | 12.7 µM | 18.2 | 39.4 | 16.8 | 25.9 µM | 17.4 | 4.2 µM | – | – | – | –
CCCNC(=O)Nc1c([N+](=O)[O-])cc(C(F)(F)F)cc1[N+](=O)[O-] | – | > 100 | 61.4 µM | > 100 µM | > 100 | 73.7 µM | > 100 µM | > 100 µM | > 100 µM | – | – | – | – | – | – | – | – | – | – | –
Nc1nnc2c(-c3ccccc3)[nH]nc2n1 | – | – | > 100 µM | > 100 µM | > 100 | > 100 µM | – | > 100 µM | 63.6 µM | – | – | – | – | – | – | – | – | – | – | –
N#CCCn1[nH]c(=O)c(Cl)c(Cl)c1=O | 27 µM | – | 29.7 µM | 32.1 µM | 35.5 | 32 µM | 33.6 µM | 30.7 µM | 16.6 µM | – | – | – | – | – | – | – | – | – | – | –
CN(C)CCNC(=O)c1cccc2c1nc(-c1ccc(F)cc1)c1ccccc12 | 15 µM | 11 | – | 19.3 µM | – | 19.1 µM | 16.8 µM | 11.4 µM | 9.89 µM | – | – | – | – | – | – | – | – | – | – | –
C[C@H]1CC[P+](Cc2ccccc2)(c2ccccc2)C1 (stereo not given in full) | > 100 µM | 89.9 | > 100 µM | > 100 µM | > 100 | > 100 µM | > 100 µM | > 100 µM | – | – | – | – | – | – | – | – | – | – | – | –
COC1=C(N)C(=O)c2nc(-c3nc(C(=O)O)c(C)c(-c4ccc(OC)c(OC)c4O)c3N)ccc2C1=O | 0.0524 µM | – | 1.12 µM and 0.184 µM | 0.00323 µM and 0.0236 µM and 0.0136 µM | – | 0.0183 µM and 0.0416 µM and 0.0515 µM | 0.0196 µM and 0.125 µM and 0.0589 µM | 0.00376 µM and 0.0263 µM and < 0.01 µM | 0.0442 µM and 0.428 µM | 0.00116 µM and 0.0104 µM | – | – | – | 0.00237 µM and 0.0223 µM and 0.0183 µM | – | 0.00666 µM and < 0.0284 µM | – | – | – | –
O=C1C(c2ccccc2)=C(c2ccccc2)C(c2ccc(Cc3ccc(C4=C(c5ccccc5)C(=O)C(c5ccccc5)=C4c4ccccc4)cc3)cc2)=C1c1ccccc1 | > 100 µM | > 100 | > 100 µM | > 100 µM | > 100 | > 100 µM | > 100 µM | – | > 100 µM | – | – | – | – | – | – | – | – | – | – | –
Nc1ccc2n[se]nc2c1 | > 100 µM | > 100 | > 100 µM | > 100 µM | > 100 | > 100 µM | > 100 µM | > 100 µM | – | – | – | – | – | – | – | – | – | – | – | –
CN(C)c1ccc(/C=C\c2ccnc3ccccc23)cc1 | – | 9.69 | – | > 44.7 µM | > 100 | > 100 µM | > 100 µM | > 100 µM | 60.4 µM | 2.96 µM | – | 3.56 | 9.77 | 8.85 µM | 20.7 | 6.23 µM | 5.09 | 49.9 | – | –
CSC1=NC(=Nc2c(C)cccc2C)C2(CCC(C(C)(C)C)CC2)N1c1ccc(Cl)cc1 (stereo not given) | – | > 100 | – | > 100 µM | > 100 | > 100 µM | > 100 µM | > 100 µM | > 100 µM | 9.32 µM | – | 29.9 | > 100 | 63.5 µM | 8.4 | 67.8 µM | 54.1 | > 100 | 4.21 | –
CCN(CC)c1ccc(/C=C/C(=O)c2ccc(Nc3nc(Nc4ccccc4)nc(Nc4ccccc4)n3)cc2)cc1 | – | 44.9 | – | 23.3 µM | 3.86 | > 100 µM | > 100 µM | > 100 µM | 4.84 µM | 1.17 µM | – | 1.41 | 32.3 | 4.64 µM | 6.1 | 0.0316 µM | 3.98 | 28.1 | 1.03 | –
O=S1(=O)N2CN3CN(C2)CN1C3 | 96.8 µM and 97.5 µM | 124 | 180 µM | 63.3 µM | – | 80.8 µM | 712 µM | 283 µM | – | – | 37.1 | – | – | – | – | – | – | – | – | 30.1
COC1C2C[C@@H](O)CCC2C(C(=O)OCCl)C[C@H]1O (stereo not given in full) | > 100 µM | > 100 | > 100 µM | – | > 100 | > 100 µM | > 100 µM | > 100 µM | – | – | – | – | – | – | – | – | – | – | – | –
O=C1c2ccccc2C(=O)c2cc3c(cc21)CS(=O)C3 | > 100 µM | > 100 | > 100 µM | > 100 µM | – | > 100 µM | > 100 µM | > 100 µM | > 100 µM | – | – | – | – | – | – | – | – | – | – | –
CC(=O)Nc1ccc(C(=O)CCl)cc1 | – | 31 | – | 33.7 µM | 7.33 | 4.06 µM | 31 µM | 3.29 µM | 4.95 µM | 15.9 µM | – | 16 | 2.07 | 14.8 µM | 1.8 | 2.12 µM | 4.94 | 17.1 | 2.63 | –
